Data reported in US20100234238A1, “METHOD FOR PROFILING KINASE INHIBITORS” (Janssen Pharmaceutica N V, priority 2006, published 2010).

Tested on: tyrosine kinase activity in xenograft tumor lysates
Assay: PAMCHIP96 (140-peptide array) profiling of xenograft tumor lysates in absence or presence of MTKI
Type: biochemical
Conditions: 5 μM
Procedure: 100 mg of frozen tumor or tissue blocks, or sections, are lysed in 1 ml of M-PER buffer (PIERCE) containing phosphatase and protease inhibitors (HALT, PIERCE). The suspension is mixed using a ULTRA-TURRAX blender (IKA werke), and centrifuged twice for 10 minutes at 12 000×g. Supernatant lysates are filtered through a 0.2 micrometer filter (Anotop 0.2 μm anopore filter; Whatmann). Lysates are flash frozen in liquid nitrogen and stored at −80C.
Just prior to the PAMCHIP experiment, total protein content is quantitated in the lysates and lysates are diluted to 1 mg/ml in a total volume of 200 μl, with M-PER phosphatase and protease inhibitors (HALT, PIERCE). 10 μg of total lysate (corresponding to 10 μl) will be used per well on the PAMCHIP96.
To all 200 μl lysates 10 units of benzonase (Novagen) is added and lysates are further incubated for 30 min on ice and next centrifuged for 10 minutes at 12 000×g. The supernatant is then 1:1 diluted with compound or DMSO diluted to the appropriate concentration in water, and lysates are further incubated exactly 60 min on ice. Meanwhile, a PAMCHIP96 tyrosine peptide chip (PAMGENE) is blocked with 2% BSA (filtered through a 0.2 μm anopore filter; Whatmann) using the standard setting of a PAMSTATION96 (PAMGENE).
The composition of the kinase buffer is as follows: 1×ABL buffer (NEB), 0.5 mg/ml BSA (from 10 mg/ml NEB stock), 100 μM ATP (dissolved and diluted in 1×ABL buffer), 5 μg/ml PY20-FITC (ExAlpha Biologicals, azide-free preparation). A twofold concentrated kinase buffer is prepared chilled on ice, DMSO or compound is added as appropriate, and the solution is added 1:1 to the (compound treated) ice cold lysates, and immediately applied to a tyrosine peptide PAMCHIP96. The assay is run on a PAMSTATION96 according to standard procedures: after loading of the plate, solution is pumped once onto the wells, a first exposure is read (150 mSec) and then a kinetic reading program (reading every 5 min for 150 mSec) is run for 60 min. Lysates are run in 6 technical replicates for each condition; replicates are always applied horizontally next to each other to avoid vertical strip effects of the chip.
The data (spot images) are further quantified and linked to the peptide identities using EVOLVE PAMGRID software (PAMGENE). The quantified data are then fit to a curve using CurveFitHT software (PAMGENE) using the Vinip2 curve fitting algorithm, applied on the first 30 min of the assay; the initial velocity is derived at the first kinetic time point read. All subsequent data analyses were done on initial velocities (Vini) using the software packages Omniviz and R (Ihaka, R. and Gentlemen, R. (1996) R: a language for data analysis and graphics. J. Comput. Graph. Stat., 5, 299-314).
After replacing the Vini's lower than 0.1 by 0.1, all Vini's were log 2-transformed to approach normality. […] This test was done for each peptide separately using a mixed model (Littell, R. C., Milliken, G. A., Stroup, W. W., Wolfinger, R. D. 1996. SAS system for mixed models. Cary, N. C.: SAS Institute Inc.) allowing the incorporation of both technical variation (i.e., the variation across replicates) and biological variation (i.e., the variation among the various responding and non-responding cell lines or tumors). Variation between cell lines or tumors in Vini and in treatment effect on Vini was modeled respectively by random intercepts and random compound effects per cell line or tumor, nested in response status. The difference in compound-induced reduction in Vini between responding and non-responding cell lines or tumors was tested through the interaction between compound treatment and response status, both modeled as fixed effects.

COc1cc2ncnc3c2cc1OCCCCCN(C)Cc1ccc(Br)cc1N3 [MTKI, 4,6-ethanediylidenepyrimido[4,5-b][6,1,12]benzoxadiazacyclopentadecine, 17-bromo-8,9,10,11,12,13,14,19-octahydro-20-methoxy-13-methyl-]
ratio of initial velocity of peptide phosphorylation (H322 xenograft tumor lysate, CDK7_157_169_S164): 0.77 | ratio of initial velocity of peptide phosphorylation (H322 xenograft tumor lysate, EPHB1_921_933_Y928): 0.75 | ratio of initial velocity of peptide phosphorylation (H322 xenograft tumor lysate, FAK1_569_581_Y576/Y577): 0.82 | ratio of initial velocity of peptide phosphorylation (H322 xenograft tumor lysate, GSK3B_209_221_Y216): 0.77 | ratio of initial velocity of peptide phosphorylation (H322 xenograft tumor lysate, K2C6E_53_65_S59): 0.80 | ratio of initial velocity of peptide phosphorylation (H322 xenograft tumor lysate, MBP_259_271_Y261/Y268/S266): 0.65 | ratio of initial velocity of peptide phosphorylation (H322 xenograft tumor lysate, MK10_216_228_T221/Y223): 0.68 | ratio of initial velocity of peptide phosphorylation (H322 xenograft tumor lysate, NCF1_313_325_S315/S320): 0.78 | ratio of initial velocity of peptide phosphorylation (H322 xenograft tumor lysate, NTRK2_699_711_Y702/Y706/Y707): 0.76 | ratio of initial velocity of peptide phosphorylation (H322 xenograft tumor lysate, P2AB_297_309_T304/Y307): 0.77 | ratio of initial velocity of peptide phosphorylation (H322 xenograft tumor lysate, PGFRB_572_584_Y579/Y581): 0.67 | ratio of initial velocity of peptide phosphorylation (H322 xenograft tumor lysate, RAF1_331_343_S337/S338/Y339/Y340): 0.79 | ratio of initial velocity of peptide phosphorylation (H322 xenograft tumor lysate, RB_804_816_S807/S811): 0.75 | ratio of initial velocity of peptide phosphorylation (H322 xenograft tumor lysate, SYN1_2_14_S9): 0.78 | ratio of initial velocity of peptide phosphorylation (H322 xenograft tumor lysate, TYRO3_679_691_Y686): 0.80 | ratio of initial velocity of peptide phosphorylation (H322 xenograft tumor lysate, VEGFR2_944_956_Y951): 0.75 | ratio of initial velocity of peptide phosphorylation (H322 xenograft tumor lysate, VINC_815_827_Y821): 0.76 | ratio of initial velocity of peptide phosphorylation (H3255 xenograft tumor lysate, CDK7_157_169_S164): 0.45 | ratio of initial velocity of peptide phosphorylation (H3255 xenograft tumor lysate, EPHB1_921_933_Y928): 0.44 | ratio of initial velocity of peptide phosphorylation (H3255 xenograft tumor lysate, FAK1_569_581_Y576/Y577): 0.48 | ratio of initial velocity of peptide phosphorylation (H3255 xenograft tumor lysate, GSK3B_209_221_Y216): 0.57 | ratio of initial velocity of peptide phosphorylation (H3255 xenograft tumor lysate, K2C6E_53_65_S59): 0.56 | ratio of initial velocity of peptide phosphorylation (H3255 xenograft tumor lysate, MBP_259_271_Y261/Y268/S266): 0.47 | ratio of initial velocity of peptide phosphorylation (H3255 xenograft tumor lysate, MK10_216_228_T221/Y223): 0.31 | ratio of initial velocity of peptide phosphorylation (H3255 xenograft tumor lysate, NCF1_313_325_S315/S320): 0.73 | ratio of initial velocity of peptide phosphorylation (H3255 xenograft tumor lysate, NTRK2_699_711_Y702/Y706/Y707): 0.48 | ratio of initial velocity of peptide phosphorylation (H3255 xenograft tumor lysate, P2AB_297_309_T304/Y307): 0.66 | ratio of initial velocity of peptide phosphorylation (H3255 xenograft tumor lysate, PGFRB_572_584_Y579/Y581): 0.66 | ratio of initial velocity of peptide phosphorylation (H3255 xenograft tumor lysate, RAF1_331_343_S337/S338/Y339/Y340): 0.53 | ratio of initial velocity of peptide phosphorylation (H3255 xenograft tumor lysate, RB_804_816_S807/S811): 0.52 | ratio of initial velocity of peptide phosphorylation (H3255 xenograft tumor lysate, SYN1_2_14_S9): 0.50 | ratio of initial velocity of peptide phosphorylation (H3255 xenograft tumor lysate, TYRO3_679_691_Y686): 0.51 | ratio of initial velocity of peptide phosphorylation (H3255 xenograft tumor lysate, VEGFR2_944_956_Y951): 0.52 | ratio of initial velocity of peptide phosphorylation (H3255 xenograft tumor lysate, VINC_815_827_Y821): 0.40 | ratio of initial velocity of peptide phosphorylation (SUM149 xenograft tumor lysate, EPHB1_921_933_Y928): 0.85 | ratio of initial velocity of peptide phosphorylation (SUM149 xenograft tumor lysate, FAK1_569_581_Y576/Y577): 0.94 | ratio of initial velocity of peptide phosphorylation (SUM149 xenograft tumor lysate, GSK3B_209_221_Y216): 0.91 | ratio of initial velocity of peptide phosphorylation (SUM149 xenograft tumor lysate, K2C6E_53_65_S59): 0.86 | ratio of initial velocity of peptide phosphorylation (SUM149 xenograft tumor lysate, MBP_259_271_Y261/Y268/S266): 1.04 | ratio of initial velocity of peptide phosphorylation (SUM149 xenograft tumor lysate, MK10_216_228_T221/Y223): 0.75 | ratio of initial velocity of peptide phosphorylation (SUM149 xenograft tumor lysate, NCF1_313_325_S315/S320): 0.94 | ratio of initial velocity of peptide phosphorylation (SUM149 xenograft tumor lysate, NTRK2_699_711_Y702/Y706/Y707): 0.85 | ratio of initial velocity of peptide phosphorylation (SUM149 xenograft tumor lysate, P2AB_297_309_T304/Y307): 0.87 | ratio of initial velocity of peptide phosphorylation (SUM149 xenograft tumor lysate, PGFRB_572_584_Y579/Y581): 0.69 | ratio of initial velocity of peptide phosphorylation (SUM149 xenograft tumor lysate, RAF1_331_343_S337/S338/Y339/Y340): 0.99 | ratio of initial velocity of peptide phosphorylation (SUM149 xenograft tumor lysate, RB_804_816_S807/S811): 0.83 | ratio of initial velocity of peptide phosphorylation (SUM149 xenograft tumor lysate, SYN1_2_14_S9): 1.01 | ratio of initial velocity of peptide phosphorylation (SUM149 xenograft tumor lysate, TYRO3_679_691_Y686): 1.03 | ratio of initial velocity of peptide phosphorylation (SUM149 xenograft tumor lysate, VEGFR2_944_956_Y951): 0.86 | ratio of initial velocity of peptide phosphorylation (SUM149 xenograft tumor lysate, VINC_815_827_Y821): 0.75
